According to patent US20170198011A1, “COMPOSITION FOR TREATING SEPSIS OR SEPTIC SHOCK COMPRISING THE PEPTIDE ORIGINATED FROM THE SMAD6” (Medpacto, Inc., priority 2011, published 2017):
Where no end group is shown, it is not given here. The star is where a group is joined. Palmitoyl = CCCCCCCCCCCCCCCC(=O)*

Columns and labels:
IL6 inflammatory gene = assay: LPS-induced IL-6 expression in RAW264.7 cells by quantitative real-time RT-PCR; type: cell-based; conditions: RAW264.7 mouse macrophages, pre-treatment, then LPS
Method: FIG. 4A is a graph showing IL-6 levels in RAW264.7 cells as measured by quantitative real-time RT-PCR after treatment with scrambled peptides (Pal-Scram; 100 nM) or Smaducin-6 and then with LPS,

[1] = tested on: lung, liver and spleen of CLP mice; assay: Hematoxylin-eosin staining of tissues of CLP mice; type: in vivo, BALB/c mice; conditions: 16 mg/kg, compared to control
Method: For use in assay for therapeutic effects of Smaducin-6 on sepsis, BALB/c mice were subjected to CLP (cecal ligation puncture) to prepare suitable animal models of clinical sepsis. Two hours after CLP operation on the mice, Smaducin-6 was subcutaneously injected at a dose of 8 mg/kg, 12 mg/kg, or 16 mg/kg to the mice, and then three more times at regular intervals of 12 hrs. […] In this context, Smaducin-6 was initially injected at a dose of 16 mg/kg 2, 4, or 10 hrs after CLP operation, and then three more times at regular intervals of 12 hrs. Further, cells from various tissues of CLP mice were stained with hematoxylin-eosin to observe nucleus and cell morphology.

inflammatory cytokines = assay: Blood cytokine levels by ELISA in mice with CLP-induced sepsis; type: in vivo; conditions: blood 24 hrs after CLP
Description: FIG. 6A to 6I show levels of cytokines in blood samples from mice subcutaneously injected twice with Smaducin-6 or scrambled peptides at 2 and 14 hrs after CLP induction, as analyzed by ELISA, the blood samples being taken 24 hrs after CLP induction, and
In animal models of CLP-induced sepsis, Smaducin-6 was examined for ability to downregulate inflammatory cytokines. Blood samples were taken from each experimental group, and various cytokines and chemokines related with inflammatory responses were quantitatively measured. To the mice with CLP-induced sepsis, the peptide of the present invention was injected 2 and 14 hrs after CLP, and blood samples were collected 24 hrs after CLP. Levels of cytokines and chemokines in the blood samples were determined by ELISA using various antibodies according to the manufacturer's protocol. The antibodies used in this ELISA included mouse IL-6 (88-7064), IFN-γ (88-7314), TNF-α (88-7346), IL-4 (88-7044), IL-10 (88-7104), TGF-β1 (88-7344), IL-12 p70 (88-7121) and IL-17A (88-7371) ELISA Ready-SET-GO from eBioscience, Mouse IL-1β ELISA Set (559603) from BD Sciences, Mouse CXCL2/MIP-2 Immunoassay (MM200) from R&D Systems, and Mouse IFN-β ELISA Kit from PBL Biomedical Laboratories.

IL-6 = IL-6 immunoblot in spleen and liver of CLP mice; type: in vivo; conditions: immunoblotting
GRK2 = assay: LPS-induced GRK2 expression in RAW264.7 macrophages (immunoblot); type: cell-based, mouse; conditions: RAW264.7 cells, 100 nM for 2 hrs, then LPS 2 hrs
Method: To examine how Smaducin-6 interrupts with the LPS-induced downregulation of CXCR2, the levels of G-protein-coupled receptor kinase 2 (GRK2) in human neutrophils and RAW264.7 macrophages were measured. GRK2 is upregualted by LPS, which is known to suppress the expression of CXCR2.

[2] = tested on: TUNEL-positive cells in the spleen; assay: TUNEL assay of spleen of mice with CLP-induced sepsis; type: in vivo; conditions: injected 2 and 14 hrs after CLP, spleen at 24 hrs
Method: An examination was made to see whether Smaducin-6 suppresses apoptosis in mice with CLP-induced sepsis. The scrambled peptides or the Smaducin-6 peptide was injected into mice suffering from CLP-induced sepsis from which the spleen was then excised. Smaducin-6 was assayed for anti-apototic activity using the TUNEL method. The expression level of caspase-3, involved in apoptosis, was also determined using an immunohistochemical assay.

IFN-β1 = IFN-β1 in peritoneal fluid (ELISA) and splenocytes (FACS) of CLP mice; type: in vivo; conditions: injected 2 and 14 hrs after CLP
Description: FIG. 8C is a graph showing levels of the IFN-β1cytokine in peritoneal fluid from mice subcutaneously injected with Smaducin-6 or scrambled peptides at 2 and 14 hrs after sepsis induction by CLP, as analyzed by ELISA, the peritoneal fluid being taken 24 hrs after CLP induction,
FIG. 8D is a graph showing expression levels of IFN-β1 in splenocytes of mice subcutaneously injected with Smaducin-6 or scrambled peptides at 2 and 14 hrs after sepsis induction by CLP, as measured by FACS, the splenocytes being taken 24 hrs after sepsis induction,
To analysis the mechanism of the anti-apoptotic activity of Smaducin-6, an examination was made of the IFN-β1-induced TRAIL expression. In this regard, 2 and 14 hrs after CLP, the scrambled peptides or the Smaducin-6 peptide was injected to the mice, and the expression of IFN-β1 in the peritoneal fluid from the mice was analyzed using ELISA in the same manner as in Example 6. In splenocytes from each mouse group, the expression level of IFN-β1 was determined using flow cytometry (FACS). For flow cytometry, IFN-β1 was detected by FITC-conjugated anti-mouse IFN-β antibody (22400-3, interferon source), and stained before data analysis using CellQuest Pro software (BD Bioscience).

TRAIL = TRAIL expression in splenocytes of CLP mice (flow cytometry, immunohistochemistry); type: in vivo; conditions: sepsis mice, flow cytometry and immunohistochemistry
Description: FIG. 8E is a graph showing expression levels of TRAIL in splenocytes of mice subcutaneously injected with Smaducin-6 or scrambled peptides at 2 and 14 hrs after sepsis induction by CLP, as measured by FACS, the splenocytes being taken 24 hrs after sepsis induction, and
Also, the effect of Smaducin-6 on the expression of TRAIL in mice with CLP-induced sepsis was examined. Splenocytes from the mice were subjected to flow cytometry and immunohistochemistry for TRAIL in the same manner as in Examples 8B and 8D. In this context, rabbit antibody TRAIL (C92B9, cell signaling), and FITC-conjugated goat antibody to […] (NOVUS) were used as a primary and a secondary antibody, respectively.

[3] = injected 2 and 14 hrs after CLP

## Smaducin-6: palmitic acid conjugated to N-terminus of the 20-amino-acid peptide of Smad6 position 422 to 441, GGRALVVRKVPPGYSIKVFD (SEQ ID NO: 1) (Palmitoyl-GGRALVVRKVPPGYSIKVFD)
IL6 inflammatory gene
  expression of LPS-induced IL6 inflammatory gene: reduced the expression of LPS-induced IL6 inflammatory gene in a dose-dependent manner
[1]
  morphology of cells and tissues of the lung, the liver and the spleen: morphologically restored
Inflammatory cytokines; [3]
  level of IFN-γ in the blood: significantly reduced
  level of IL-1β in the blood: significantly reduced
  level of IL-6 in the blood: significantly reduced
  level of TNF-α in the blood: significantly reduced
Inflammatory cytokines; versus scrambled peptide
  level of IL-4 in the blood: no statistically significant changes
  level of IL-10 in the blood: no statistically significant changes
  level of IL-12 in the blood: no statistically significant changes
  level of IL-17A in the blood: no statistically significant changes
  level of TGF-β1 in the blood: no statistically significant changes
IL-6
  IL-6 expression in the spleen and the liver: reduce
GRK2
  LPS-induced GRK2 expression: downregualed
[2]
  level of TUNEL-positive cells in the spleen: significantly reduced
IFN-β1; ELISA (FIG. 8C)
  production of IFN-β1 in peritoneal fluid: inhibited
IFN-β1; FACS (FIG. 8D)
  expression level of IFN-β1 in splenocytes: inhibited
TRAIL
  TRAIL expression in splenocytes: reduced
